In patent US8853412B2, “Pyrrolidinone derivatives as GPR119 modulators for the treatment of diabetes, obesity, dyslipidemia and related disorders” (Sanofi, priority 2012, dated 2014):

What follows are molecules tested against T1, human GPR119 (Homo sapiens, UniProt Q8TDV5) (assay: Functional cellular assay measuring GPR119-mediated cAMP release (HTRF), HEK-293 cells stably expressing recombinant GPR119). Details: cell line expressing human GPR119; cAMP response, 30 minutes at room temperature.
T1 construct: expressed in transfected cells; host or cells: HEK-293 cell line stably expressing recombinant GPR119
T1 sequence (Q8TDV5 1-335): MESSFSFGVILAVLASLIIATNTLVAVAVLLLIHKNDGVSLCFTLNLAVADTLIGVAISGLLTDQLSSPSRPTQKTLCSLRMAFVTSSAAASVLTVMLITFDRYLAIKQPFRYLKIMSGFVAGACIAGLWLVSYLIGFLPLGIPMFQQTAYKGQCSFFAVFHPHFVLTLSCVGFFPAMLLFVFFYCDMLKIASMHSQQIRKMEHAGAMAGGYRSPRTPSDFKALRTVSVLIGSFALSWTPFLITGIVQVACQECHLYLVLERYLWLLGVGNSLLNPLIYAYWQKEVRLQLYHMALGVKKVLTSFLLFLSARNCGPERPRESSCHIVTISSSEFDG
Format: cell-based
Method: Functional Cellular Assays Measuring GPR119-Mediated cAMP Release.
Compounds of the invention, which are agonists of GPR119, were characterized by functional assays measuring the cAMP response of HEK-293 cell lines stably expressing recombinant GPR119 from man, mouse or rat, or by using a hamster cell line HIT-T15 expressing GPR119 endogenously. The cAMP content was determined using a kit based on homogenous time-resolved fluorescence (HTRF) from Cisbio Corp. (cat. no. 62AM4PEC). For preparation, cells were split into T175 culture flasks and grown to near confluency in medium (DMEM/10% FCS for HEK-293 cells, and F-12K medium/10% horse serum/2.5% FCS for HIT-T15 cells, respectively). Medium was then removed and cells washed with PBS lacking calcium and magnesium ions, followed by proteinase treatment with accutase (Sigma-Aldrich, cat. no. A6964). Detached cells were washed and resuspended in assay buffer (1×HBSS; 20 mM HEPES, 0.1% BSA, 2 mM IBMX) and cellular density determined. They were then diluted to 400000 cells/mL and 25 μL-aliquots dispensed to the wells of 96-well plates. For measurement, 25 μL of test compound in assay buffer was added and incubated for 30 minutes at room temperature. After addition of HTRF reagents diluted in lysis buffer, the plates were incubated for 1 hour, followed by measuring the fluorescence ratio at 665 vs. 620 nm. Potency of the agonists was quantified by determining the concentrations that caused 50% of the maximal response/activation (EC50). See Table 10 for exemplary data obtained using the cell line expressing human GPR119.

Row | SMILES | EC50
1 | Cc1cc(COc2ccc(O[C@@H]3CCN(c4cc(F)c5c(c4)C(=O)CC5)C3=O)cn2)no1 [Example 2-41] | 360 nM
2 | O=C1CCc2c(F)cc(N3CC[C@@H](Oc4ccc(OCCCO)nc4)C3=O)cc21 [Example 2-42] | 1310 nM
3 | CCOC(=O)COc1ccc(O[C@@H]2CCN(c3cc(F)c4c(c3)C(=O)CC4)C2=O)cn1 [Example 2-43] | 62 nM
4 | O=C1CCc2c(F)cc(N3CC[C@@H](Oc4ccc(OC(CF)CF)nc4)C3=O)cc21 [Example 2-44] | 46 nM
5 | CC(C)CC(C)Oc1ccc(O[C@@H]2CCN(c3cc(F)c4c(c3)C(=O)CC4)C2=O)cn1 (stereo partly drawn) [Example 2-45] | 25 nM
6 | CC(C)C(C)Oc1ccc(O[C@@H]2CCN(c3cc(F)c4c(c3)C(=O)CC4)C2=O)cn1 (stereo partly drawn) [Example 2-46] | 37 nM
7 | CCC(COC)Oc1ccc(O[C@@H]2CCN(c3cc(F)c4c(c3)C(=O)CC4)C2=O)cn1 (stereo partly drawn) [Example 2-47] | 138 nM
8 | O=C1CCc2c(F)cc(N3CC[C@@H](Oc4ccc(OCCF)nc4)C3=O)cc21 [Example 2-48] | 64 nM
9 | CCC(Oc1ccc(O[C@@H]2CCN(c3cc(F)c4c(c3)C(=O)CC4)C2=O)cn1)C(C)C (stereo partly drawn) [Example 2-49] | 94 nM
10 | CC(CCO)CCOc1ccc(O[C@@H]2CCN(c3cc(F)c4c(c3)C(=O)CC4)C2=O)cn1 (stereo partly drawn) [Example 2-50] | 1050 nM
11 | CCOCC(C)Oc1ccc(O[C@@H]2CCN(c3cc(F)c4c(c3)C(=O)CC4)C2=O)cn1 (stereo partly drawn) [Example 2-51] | 77 nM
12 | O=C1CCc2c(F)cc(N3CC[C@@H](Oc4ccc(OCc5cnccn5)nc4)C3=O)cc21 [Example 2-52] | 1190 nM
13 | CCOCCCOc1ccc(O[C@@H]2CCN(c3cc(F)c4c(c3)C(=O)CC4)C2=O)cn1 [Example 2-53] | 21 nM
14 | O=C1CCc2c(F)cc(N3CC[C@@H](Oc4ccc(OCC5CCCCO5)nc4)C3=O)cc21 (stereo partly drawn) [Example 2-54] | 154 nM
15 | O=C1CCc2c(F)cc(N3CC[C@@H](Oc4ccc(OCC5CCC5)nc4)C3=O)cc21 [Example 2-55] | 7 nM
16 | O=C1CCc2c(F)cc(N3CC[C@@H](Oc4ccc(OCCN5CCCC5=O)nc4)C3=O)cc21 [Example 2-56] | 9300 nM
17 | O=C1CCc2c(F)cc(N3CC[C@@H](Oc4ccc(OCC5CCCC5)nc4)C3=O)cc21 [Example 2-57] | 9 nM
18 | CC(C)N(CCOc1ccc(O[C@@H]2CCN(c3cc(F)c4c(c3)C(=O)CC4)C2=O)cn1)C(C)C [Example 2-58] | 7530 nM
19 | CN1CCC[C@H]1COc1ccc(O[C@@H]2CCN(c3cc(F)c4c(c3)C(=O)CC4)C2=O)cn1 [Example 2-59] | 2220 nM
20 | CC1(COc2ccc(O[C@@H]3CCN(c4cc(F)c5c(c4)C(=O)CC5)C3=O)cn2)CC1 [Example 2-60] | 11 nM
21 | O=C1CCc2c(F)cc(N3CC[C@@H](Oc4ccc(OCCCF)nc4)C3=O)cc21 [Example 2-61] | 15 nM
22 | COC(C)(C)CCOc1ccc(O[C@@H]2CCN(c3cc(F)c4c(c3)C(=O)CC4)C2=O)cn1 [Example 2-62] | 68 nM
23 | O=C1CCc2c(F)cc(N3CC[C@@H](Oc4ccc(OC5CCCC5)nc4)C3=O)cc21 [Example 2-63] | 5 nM
24 | CCC(CC)Oc1ccc(O[C@@H]2CCN(c3cc(F)c4c(c3)C(=O)CC4)C2=O)cn1 [Example 2-64] | 54 nM
25 | O=C1CCc2c(F)cc(N3CC[C@@H](Oc4ccc(OCCCCCO)nc4)C3=O)cc21 [Example 2-65] | 2380 nM
26 | O=C1CCc2c(F)cc(N3CC[C@@H](Oc4ccc(OC5CCCCC5)nc4)C3=O)cc21 [Example 2-66] | 16 nM
27 | O=C1CCc2c(F)cc(N3CC[C@@H](Oc4ccc(OCCN5CCCC5)nc4)C3=O)cc21 [Example 2-67] | 15000 nM
28 | O=C1CCc2c(F)cc(N3CC[C@@H](Oc4ccc(O[C@H]5CCOC5)nc4)C3=O)cc21 [Example 2-68] | 90 nM
29 | CO[C@@H](C)COc1ccc(O[C@@H]2CCN(c3cc(F)c4c(c3)C(=O)CC4)C2=O)cn1 [Example 2-69] | 29 nM
30 | CC(=O)N1CCCC(Oc2ccc(O[C@@H]3CCN(c4cc(F)c5c(c4)C(=O)CC5)C3=O)cn2)C1 (stereo partly drawn) [Example 2-70] | 3010 nM
